The values that follow come from patent US10005774B2, “Syk inhibitors” (Gilead Sciences, Inc., priority 2013, dated 2018).

Each structure is given as a SMILES string. Values joined by “and” are separate entries in the source; they are usually repeats but may differ in a detail not shown here. Identical values can stand only once.

Usually IC50 stands for the concentration at which inhibition is half-maximal.

One assay has as its target Syk (Homo sapiens, UniProt P43405). Kind of assay: High Throughput Syk Biochemical Assay (KinEASE TR-FRET). To be noted: TABLE D, 20 μM ATP, 1 μM biotinylated peptide, 0.015 nM Syk, 30 min at room temperature, read-out: IC50. In outline:
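Compounds in DMSO dilution series were tested against Syk, which phosphorylates an XL665-tagged peptide. The phosphoproduct was bound by Eu-labelled phosphotyrosine antibody in a two-step endpoint format.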
A general note: Time-resolved FRET reads energy transfer from a long-lived donor to a nearby acceptor.
On to `Cc1cc(-c2cc3ncn(C)c3c(O[C@H](C)[C@H]3CNC(=O)C3)n2)ccc1N(C)C` [(R)-4-((R)-1-(6-(4-(dimethylamino)-3-methylphenyl)-3-methyl-3H-imidazo[4,5-c]pyridin-4-yloxy)ethyl)pyrrolidin-2-one], for which the IC50 came to 5.31 nM.

On to `COc1cc(-c2cc(O[C@H](C)[C@H]3CNC(=O)C3)c3ccnn3c2)cc(OC)c1OC` [(R)-4-((R)-1-((6-(3,4,5-trimethoxyphenyl)pyrazolo[1,5-a]pyridin-4-yl)oxy)ethyl)pyrrolidin-2-one], for which the IC50 is 85.1 nM.

As to `C[C@@H](Oc1nc(-c2ccc3c(c2)OC(F)(F)O3)cc2ncn(C)c12)[C@H]1CNC(=O)C1` [(R)-4-((R)-1-(6-(2,2-difluorobenzo[d][1,3]dioxol-5-yl)-3-methyl-3H-imidazo[4,5-c]pyridin-4-yloxy)ethyl)pyrrolidin-2-one], the IC50 stood at 148 nM.

For the compound `COc1ccc(-c2cc(O[C@H](C)[C@H]3CNC(=O)C3)c3ccnn3c2)cc1OC` [(R)-4-((R)-1-((6-(3,4-dimethoxyphenyl)pyrazolo[1,5-a]pyridin-4-yl)oxy)ethyl)pyrrolidin-2-one], the 50% inhibitory concentration (IC50) came out at 39.1 nM.

Take `C[C@@H](Oc1nc(-c2ccc3cnn(C)c3c2)cc2ncn(C)c12)[C@H]1CNC(=O)C1` [(R)-4-((R)-1-((3-methyl-6-(1-methyl-1H-indazol-6-yl)-3H-imidazo[4,5-c]pyridin-4-yl)oxy)ethyl)pyrrolidin-2-one]: the IC50 is 16.8 nM.

As for `C[C@@H](Oc1nc(-c2ccc3c(c2)N(C)CCO3)cc2ncn(C)c12)[C@H]1CNC(=O)C1` [(R)-4-((R)-1-(3-methyl-6-(4-methyl-3,4-dihydro-2H-benzo[b][1,4]oxazin-6-yl)-3H-imidazo[4,5-c]pyridin-4-yloxy)ethyl)pyrrolidin-2-one], the IC50 was 13.5 nM.

In the case of `C[C@@H](Oc1nc(-c2ccc(N3CCOCC3)cc2)cc2ncn(C(F)F)c12)[C@H]1CNC(=O)C1` [(R)-4-((R)-1-(3-(difluoromethyl)-6-(4-morpholinophenyl)-3H-imidazo[4,5-c]pyridin-4-yloxy)ethyl)pyrrolidin-2-one], the IC50 is 1.55 nM and 1.25 nM.

For `C[C@@H](Oc1nc(-c2cnn(C3COC3)c2)cc2ncn(C)c12)[C@H]1CNC(=O)C1` [(R)-4-((R)-1-(3-methyl-6-(1-(oxetan-3-yl)-1H-pyrazol-4-yl)-3H-imidazo[4,5-c]pyridin-4-yloxy)ethyl)pyrrolidin-2-one], the IC50 came out at 23.5 nM.

Turning to `C[C@@H](Oc1nc(-c2ccc(N3CCNCC3)cc2)cc2ncn(C)c12)[C@H]1CNC(=O)C1` [(R)-4-((R)-1-(3-methyl-6-(4-(piperazin-1-yl)phenyl)-3H-imidazo[4,5-c]pyridin-4-yloxy)ethyl)pyrrolidin-2-one], the 50% inhibitory concentration (IC50) turned out to be 8.28 nM.

`COc1ccc(-c2cc3ncn(C)c3c(O[C@H](C)[C@H]3CNC(=O)C3)n2)cc1C#N`: the IC50 turned out to be 16.7 nM.

On to `C[C@@H](Oc1cc(-c2ccc(N3CCOCC3)cc2)cn2ncc(Cl)c12)[C@H]1CNC(=O)C1` [(R)-4-((R)-1-((3-chloro-6-(4-morpholinophenyl)pyrazolo[1,5-a]pyridin-4-yl)oxy)ethyl)pyrrolidin-2-one], for which the IC50 was 0.31 nM.

Turning to `COc1ccc(-c2cc3nc[nH]c3c(O[C@H](C)[C@H]3CNC(=O)C3)n2)cc1OC` [(R)-4-((R)-1-(6-(3,4-dimethoxyphenyl)-3H-imidazo[4,5-c]pyridin-4-yloxy)ethyl)pyrrolidin-2-one], the IC50 is 513 nM.

For the compound `C[C@@H](Oc1cc(-c2cc3c(cnn3C)s2)cc2ncsc12)[C@H]1CNC(=O)C1` (stereo in doubt) [(R)-4-((R)-1-((5-(1-methyl-1H-thieno[3,2-c]pyrazol-5-yl)benzo[d]thiazol-7-yl)oxy)ethyl)pyrrolidin-2-one], the IC50 was 2.97 nM.

In the case of `C[C@@H](Oc1nc(-c2cnn(C(C)(C)C)c2)cc2ncn(C(F)F)c12)[C@H]1CNC(=O)C1` [(R)-4-((R)-1-(6-(1-tert-butyl-1H-pyrazol-4-yl)-3-(difluoromethyl)-3H-imidazo[4,5-c]pyridin-4-yloxy)ethyl)pyrrolidin-2-one], the IC50 was determined as 1.22 nM.

Turning to `COc1ccc(-c2cc(O[C@H](C)[C@H]3CNC(=O)C3)c3c(c2)ncn3C)cc1OC` [(R)-4-((R)-1-((5-(3,4-dimethoxyphenyl)-1-methyl-1H-benzo[d]imidazol-7-yl)oxy)ethyl)pyrrolidin-2-one], the IC50 came to 38.2 nM.

For `CC[C@@H](Oc1nc(-c2ccc(OC)c(OC)c2)cc2ncn(C)c12)[C@H]1CNC(=O)C1`, the 50% inhibitory concentration (IC50) was 7.63 nM.

Consider `C[C@@H](Oc1cc(-c2cccc(C(F)(F)F)n2)cc2ncn(C)c12)[C@H]1CNC(=O)C1` [(R)-4-((R)-1-((1-methyl-5-(6-(trifluoromethyl)pyridin-2-yl)-1H-benzo[d]imidazol-7-yl)oxy)ethyl)pyrrolidin-2-one], for which the 50% inhibitory concentration (IC50) turned out to be 191 nM.

Consider `CC(C)n1cc(-c2cc(O[C@H](C)[C@H]3CNC(=O)C3)c3ccnn3c2)cn1` [(R)-4-((R)-1-(6-(1-isopropyl-1H-pyrazol-4-yl)pyrazolo[1,5-a]pyridin-4-yloxy)ethyl)pyrrolidin-2-one], for which the IC50 was found to be 4.15 nM.

`C[C@@H](Oc1nc(-c2cccc(N3CCOCC3)c2)cc2ncn(C)c12)[C@H]1CNC(=O)C1` [(R)-4-((R)-1-(3-methyl-6-(3-morpholinophenyl)-3H-imidazo[4,5-c]pyridin-4-yloxy)ethyl)pyrrolidin-2-one]: the half-maximal inhibitory concentration (IC50) is 102 nM.

Consider `COc1ccc(-c2cc3ncn(CC(F)(F)F)c3c(O[C@H](C)[C@H]3CNC(=O)C3)n2)cc1OC` [(R)-4-((R)-1-(6-(3,4-dimethoxyphenyl)-3-(2,2,2-trifluoroethyl)-3H-imidazo[4,5-c]pyridin-4-yloxy)ethyl)pyrrolidin-2-one], for which the IC50 amounted to 51.3 nM.

`COc1ccc(-c2cc3nc(C)n(C)c3c(O[C@H](C)[C@H]3CNC(=O)C3)n2)cc1OC` [(4R)-4-((1R)-1-(6-(3,4-dimethoxyphenyl)-2,3-dimethyl-3a,7a-dihydro-3H-imidazo[4,5-c]pyridin-4-yloxy)ethyl)pyrrolidin-2-one]: the 50% inhibitory concentration (IC50) came to 25.4 nM.

`C[C@H](Oc1cc(-c2cnc(C(C)(C)C)s2)cc2ncsc12)[C@@H]1CNC(=O)C1` (stereo in doubt) [(S)-4-((S)-1-((5-(2-(tert-butyl)thiazol-5-yl)benzo[d]thiazol-7-yl)oxy)ethyl)pyrrolidin-2-one]: the IC50 turned out to be 1.5 nM.

The assay is the same for the next values; noted with them: table 'ALL NEW COMPOUNDS IN 2014', 20 μM ATP, 1 μM biotinylated peptide, 0.015 nM Syk, 30 min at room temperature, read-out: Syk IC50.
`C[C@@H](Oc1cc(-c2ccc(N3CCC(C4COC4)CC3)cn2)cc2ncn(C3CC3)c12)[C@H]1CNC(=O)C1` [(R)-4-((R)-1-((1-cyclopropyl-5-(5-(4-(oxetan-3-yl)piperidin-1-yl)pyridin-2-yl)-1H-benzo[d]imidazol-7-yl)oxy)ethyl)pyrrolidin-2-one]: the 50% inhibitory concentration (IC50) was determined as 4.65 nM.

As to `C[C@@H](Oc1nc(-c2ccccc2)cc2ncn(C3CC3)c12)[C@H]1CNC(=O)C1`, the IC50 turned out to be 12.5 nM.

As to `C[C@@H](Oc1nc(-c2ccc(N3CCN(C4COC4)CC3)c(Cl)c2)cc2ncn(C3CC3)c12)[C@H]1CNC(=O)C1` [(R)-4-((R)-1-((6-(3-chloro-4-(4-(oxetan-3-yl)piperazin-1-yl)phenyl)-3-cyclopropyl-3H-imidazo[4,5-c]pyridin-4-yl)oxy)ethyl)pyrrolidin-2-one], the IC50 was 2.76 nM.

For the compound `C[C@@H](Oc1cc(-c2cnn(C)n2)cc2ncn(C3CC3)c12)[C@H]1CNC(=O)C1` [(R)-4-((R)-1-((1-cyclopropyl-5-(2-methyl-2H-1,2,3-triazol-4-yl)-1H-benzo[d]imidazol-7-yl)oxy)ethyl)pyrrolidin-2-one], the IC50 amounted to 22.4 nM.

As to `C[C@@H](Oc1cc(-c2nccs2)cc2ncn(C3CC3)c12)[C@H]1CNC(=O)C1` [(R)-4-((R)-1-((1-cyclopropyl-5-(thiazol-2-yl)-1H-benzo[d]imidazol-7-yl)oxy)ethyl)pyrrolidin-2-one], the IC50 is 9.4 nM.

For the compound `CCS(=O)(=O)N1CCN(c2ccc(-c3cc4ncn(C5CC5)c4c(O[C@H](C)[C@H]4CNC(=O)C4)n3)cc2)CC1` [(R)-4-((R)-1-((3-cyclopropyl-6-(4-(4-(ethylsulfonyl)piperazin-1-yl)phenyl)-3H-imidazo[4,5-c]pyridin-4-yl)oxy)ethyl)pyrrolidin-2-one], the IC50 was determined as 1.05 nM.

For `Cc1nc(-c2cc(O[C@H](C)[C@H]3CNC(=O)C3)c3c(c2)ncn3C2CC2)cs1` [(R)-4-((R)-1-((1-cyclopropyl-5-(2-methylthiazol-4-yl)-1H-benzo[d]imidazol-7-yl)oxy)ethyl)pyrrolidin-2-one], the IC50 is 16.7 nM.

For `C[C@@H](Oc1nc(-c2ccc(N3CCN(S(=O)(=O)C4CC4)CC3)cc2)cc2ncn(C3CC3)c12)[C@H]1CNC(=O)C1` [(R)-4-((R)-1-((3-cyclopropyl-6-(4-(4-(cyclopropylsulfonyl)piperazin-1-yl)phenyl)-3H-imidazo[4,5-c]pyridin-4-yl)oxy)ethyl)pyrrolidin-2-one], the concentration for half-maximal inhibition (IC50) was 1.3 nM.

`C[C@@H](Oc1cc(-c2ccc(N3CCN(C4COC4)CC3)cn2)cc2ncn(C3CC3)c12)[C@H]1CNC(=O)C1` [(R)-4-((R)-1-((1-cyclopropyl-5-(5-(4-(oxetan-3-yl)piperazin-1-yl)pyridin-2-yl)-1H-benzo[d]imidazol-7-yl)oxy)ethyl)pyrrolidin-2-one]: the IC50 worked out at 4.72 nM.

In the case of `Cc1nc(-c2cc(O[C@H](C)[C@H]3CNC(=O)C3)c3c(c2)ncn3C2CC2)sc1C` [(R)-4-((R)-1-((1-cyclopropyl-5-(4,5-dimethylthiazol-2-yl)-1H-benzo[d]imidazol-7-yl)oxy)ethyl)pyrrolidin-2-one], the half-inhibitory concentration (IC50) was 1.41 nM.

Take `COc1cc(-c2cc3ncn(C4CC4)c3c(O[C@H](C)[C@H]3CNC(=O)C3)n2)ccc1OC(F)F` [(R)-4-((R)-1-((3-cyclopropyl-6-(4-(difluoromethoxy)-3-methoxyphenyl)-3H-imidazo[4,5-c]pyridin-4-yl)oxy)ethyl)pyrrolidin-2-one]: the IC50 came out at 5.22 nM.

On to `Cc1cc(-c2cc(O[C@H](C)[C@H]3CNC(=O)C3)c3c(c2)ncn3C2CC2)nn1C` [(R)-4-((R)-1-((1-cyclopropyl-5-(1,5-dimethyl-1H-pyrazol-3-yl)-1H-benzo[d]imidazol-7-yl)oxy)ethyl)pyrrolidin-2-one], for which the IC50 came to 2.15 nM.
